EPA's ToxRefDB 2

Experiments:
rat [1] = conditions: Acute oral toxicity, wistar, [Not Specified], dose end: 7 day, group: systemic, systemic / clinical chemistry / calcium / calcium + systemic / urinalysis / calcium / calcium
dog [2] = conditions: Chronic toxicity, beagle, Oral, Feed, dose end: 52 week
rat [3] = conditions: Subchronic oral toxicity in rodents, sprague dawley, Feed, dose end: 90 day
rat [4] = conditions: Developmental neurotoxicity range-finding study, sprague dawley, Oral, Feed, dose end: 21 PND, group: cannot be grouped
rat [5] = conditions: Chronic toxicity, sprague dawley, Oral, Feed, dose end: 98 week, group: cholinesterase
rat [6] = conditions: Prenatal developmental toxicity study, sprague dawley, Oral, Gavage/Intubation, dose end: 15 GD
dog [7] = conditions: Chronic toxicity; beagle; Oral; Capsule; dose end: 12 month; group: systemic; systemic / in life observation / clinical signs / emesis + systemic / in life observation / clinical signs / mucoid stools + systemic / in …
mouse [8] = conditions: Carcinogenicity, cd1, Oral, Feed, dose end: 22 month, group: systemic
rabbit = conditions: Prenatal developmental toxicity study, new zealand white, Oral, Gavage/Intubation, dose end: 19 GD
mouse [9] = conditions: Carcinogenicity; cd1; Oral; Feed; dose end: 113 week; group: systemic; systemic / pathology microscopic / intestine small / adenocarcinoma + systemic / pathology microscopic / intestine small / adenoma + …
[10] = group: cholinesterase, cholinesterase / cholinesterase / cholinesterase / cholinesterase (che) + cholinesterase / cholinesterase / cholinesterase / plasma …
[11] = group: systemic, systemic / organ weight / lung / relative to brain weight
[12] = group: cholinesterase, cholinesterase / cholinesterase / cholinesterase / plasma cholinesterase (che)
[13] = group: cholinesterase, cholinesterase / cholinesterase / cholinesterase / plasma cholinesterase (che) + cholinesterase / cholinesterase / cholinesterase / brain …
[14] = group: systemic, systemic / in life observation / body weight / body weight gain + systemic / in life observation / clinical signs / aggressive behavior + …
[15] = cholinesterase / cholinesterase / cholinesterase / plasma cholinesterase (che)
[16] = cholinesterase / cholinesterase / cholinesterase / plasma cholinesterase (che) + cholinesterase / cholinesterase / cholinesterase / brain …
[17] = group: developmental, developmental / developmental malformation / bone / short + systemic / in life observation / body weight / fetal weight
[18] = group: maternal, systemic / in life observation / body weight / body weight gain + reproductive / reproductive performance / postimplantation loss / …
[19] = systemic / pathology microscopic / intestine small / neoplasm nos + systemic / pathology microscopic / stomach / neoplasm nos + systemic / …
[20] = group: developmental, developmental / developmental malformation / bone / delayed ossification + developmental / developmental malformation / bone / full …
[21] = group: maternal, systemic / in life observation / body weight / body weight gain + systemic / in life observation / clinical signs / anorexia + systemic / in…

`COc1ccc2c(c1)c(CC(=O)O)c(C)n2C(=O)c1ccc(Cl)cc1` [Indomethacin] showed an LEL (rat [1]) of 20 mg/kg/day, an LOAEL (rat [1]) greater than 20 mg/kg/day and an NEL (rat [1]) of less than 20 mg/kg/day. For the same compound, the NOAEL (rat [1]) was no less than 20 mg/kg/day.
For `CCOP(=S)(OCC)Oc1cc(C)nc(C(C)C)n1` [Diazinon], the LEL (dog [2]; group: cholinesterase, cholinesterase / cholinesterase / cholinesterase / cholinesterase (che)) was 0.015 mg/kg/day, the NEL (dog [2]; group: cholinesterase, cholinesterase / cholinesterase / cholinesterase / cholinesterase (che) + cholinesterase / cholinesterase / cholinesterase / brain …) was 0.0032 mg/kg/day and the LOAEL (dog [2]; [10]) was 0.02 mg/kg/day. It also gave an NOAEL (dog [2]; [10]) of 0.0037 mg/kg/day, an LOAEL (dog [2]; group: systemic, systemic / clinical chemistry / [other] / [other] + systemic / in life observation / food consumption / food consumption) of 4.5 mg/kg/day and an NOAEL (dog [2]; group: systemic, systemic / clinical chemistry / [other] / [other] + systemic / in life observation / food consumption / food consumption + systemic / in …) of 0.02 mg/kg/day. The LEL (dog [2]; [11]) was 0.0037 mg/kg/day, the NEL (dog [2]; [11]) was less than 0.0037 mg/kg/day and the LEL (rat [3]; [12]) was 0.3 mg/kg/day. The LOAEL (rat [3]; [12]) was 0.3 mg/kg/day, the NEL (rat [3]; [13]) was 0.03 mg/kg/day and the NOAEL (rat [3]; [13]) was 0.03 mg/kg/day. The LEL (rat [3]; [14]) was 168 mg/kg/day, the LOAEL (rat [3]; [14]) was greater than 168 mg/kg/day and the NEL (rat [3]; [14]) was 15 mg/kg/day. The NOAEL (rat [3]; [14]) was no less than 168 mg/kg/day, the LOAEL (rat [4]; [15]) was 0.063 mg/kg/day and the LEL (rat [4]; [16]) was 0.063 mg/kg/day. It also gave an NEL (rat [4]; [16]) of 0.0125 mg/kg/day, an NOAEL (rat [4]; [16]) of 0.0125 mg/kg/day and an LEL (rat [5]; [15]) of 0.06 mg/kg/day. The LOAEL (rat [5]; [15]) was 0.06 mg/kg/day, the NEL (rat [5]; [16]) was 0.004 mg/kg/day and the NOAEL (rat [5]; [16]) was 0.004 mg/kg/day. It also gave an LOAEL (rat [6]; group: developmental, developmental / developmental malformation / bone / short) of 100 mg/kg/day, an LEL (rat [6]; [17]) of 100 mg/kg/day and an NEL (rat [6]; [17]) of 20 mg/kg/day. It also gave an NOAEL (rat [6]; [17]) of 20 mg/kg/day, an LOAEL (rat [6]; group: maternal, systemic / in life observation / body weight / body weight gain) of 100 mg/kg/day and an LEL (rat [6]; [18]) of 100 mg/kg/day. It also gave an NEL (rat [6]; [18]) of 20 mg/kg/day and an NOAEL (rat [6]; [18]) of 20 mg/kg/day.
Compound `O=C1C2CC=CCC2C(=O)N1SC(Cl)(Cl)Cl` (stereo unspecified) [Captan] has an LEL (dog [7]) of 300 mg/kg/day, an LOAEL (dog [7]) of 300 mg/kg/day and an NEL (dog [7]) of 60 mg/kg/day. The NOAEL (dog [7]) was 60 mg/kg/day, the LOAEL (mouse [8]; systemic / in life observation / body weight / body weight + systemic / in life observation / food consumption / food consumption) was 925 mg/kg/day and the LEL (mouse [8]; systemic / pathology microscopic / intestine small / neoplasm nos + systemic / pathology microscopic / stomach / neoplasm nos) was 60.9 mg/kg/day. The NEL (mouse [8]; [19]) was 15.1 mg/kg/day, the NOAEL (mouse [8]; [19]) was 123 mg/kg/day and the LEL (rabbit; [20]) was 30 mg/kg/day. The LOAEL (rabbit; [20]) was 30 mg/kg/day, the NEL (rabbit; [20]) was 10 mg/kg/day and the NOAEL (rabbit; [20]) was 10 mg/kg/day. It also gave an LEL (rabbit; [21]) of 30 mg/kg/day, an LOAEL (rabbit; [21]) of 30 mg/kg/day and an NEL (rabbit; [21]) of 10 mg/kg/day. The NOAEL (rabbit; [21]) was 10 mg/kg/day, the LEL (mouse [9]) was 599 mg/kg/day and the LOAEL (mouse [9]) was greater than 1880 mg/kg/day. It also gave an NEL (mouse [9]) of less than 599 mg/kg/day and an NOAEL (mouse [9]) of no less than 1880 mg/kg/day.
